Measured values reported in US7785566B2, “Pharmaceutical compounds” (GE Healthcare, Inc., priority 2003, dated 2010).

System: ventricular extrasystoles after LAD artery occlusion
Assay: Antiarrythmic effect in a post myocardial infarction (MI) pig model (LAD ligation)
Assay type: in vivo
Excerpt: The pharmaceutical cPn216-[…]OH (X) was examined according to the following procedure:
A pig was anaestetised and put on artificial overpressure ventilation. Access to the heart was obtained by a midline sternotomy and removal of the anterior pericardium. The LAD artery was occluded by ligation above the 2nd branch and one of the collaterals was occluded as well. This caused development of frequent ventricular extrasystoles, known to proceed into ventricular tachycardia and fibrillation within minutes from previous experiments with the same type of preparation. […] An initial rise in mean blood pressure was noticed. Ventricular extrasystoles reappeared gradually after about 15 minutes and a new injection of 0.5 mg of the compound of formula (X) was given. […] The pig was then given a lethal dose of potassium chloride to terminate the experiment.
A similar set of observations was made in a second pig experiment.

[1] = pig, hour following second 0.5 mg injection

## CCC(C)[C@H](NC(=O)[C@@H]1CCCN1C(=O)[C@H](Cc1cnc[nH]1)NC(=O)[C@@H](NC(=O)[C@H](Cc1ccc(O)cc1)NC(=O)[C@@H](NC(=O)[C@H](CCCNC(=N)N)NC(=O)CNCCC(CCNC(C)(C)/C(C)=N\O)CCNC(C)(C)/C(C)=N\O)C(C)C)C(C)CC)C(=O)O (some centres unmarked) [(X)]
pig, ECG recordings before and after the first injection
  Duration of QRS complexes (ECG before and after first injection): shortening
pig, LAD occluded, frequent ventricular extrasystoles, i.v. 0,5 mg, within few minutes
  Heart rhythm after first intravenous injection: Complete stabilisation of the condition with return to sinus rhythm
pig, after first i.v. injection of 0,5 mg
  Time until ventricular extrasystoles reappeared: about 15 minutes
[1]
  Blood pressure during the following hour: slightly reduced but adequate constant
  Heart rhythm during the following hour: stable sinus rhythm
pig, i.v. 0,5 mg, first injection
  Mean blood pressure after first injection: initial rise
pig, new injection of 0.5 mg after reappearance of extrasystoles
  Heart rhythm after second injection: stabilised with regular sinus rhythm
post-MI pig preparation
  Overall anti-arrythmic activity in this preparation: act as an anti-arrythmic drug
